What was measured:
Test in all cases: relative viability (nuclei count vs DMSO), 5 days (fraction); higher = more cells survive
Bosutinib + AZD7762 = compound: COc1cc(Nc2c(C#N)cnc3cc(OCCCN4CCN(C)CC4)c(OC)cc23)c(Cl)cc1Cl [Bosutinib] + NC(=O)Nc1cc(-c2cccc(F)c2)sc1C(=O)N[C@H]1CCCNC1 [AZD7762] (partner 0.2 µM)
How it was run: (§1)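 Medians of duplicate plates are given as relative viability. That measure is the nuclei count in treated wells divided by the count in vehicle wells. Counts were taken on 4× images of lung cancer cell lines in 1536-well plates, 5 days after pin-tool dosing the day after seeding with one drug alone or a fixed anchor-drug dose plus five library-drug doses (not always all listed) in √10 steps.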

Bosutinib + Phenformin = compound: COc1cc(Nc2c(C#N)cnc3cc(OCCCN4CCN(C)CC4)c(OC)cc23)c(Cl)cc1Cl [Bosutinib] + N=C(N)NC(=N)NCCc1ccccc1 [Phenformin] (partner 250 µM)
How it was run: as §1

Bosutinib + Alpelisib = compound: COc1cc(Nc2c(C#N)cnc3cc(OCCCN4CCN(C)CC4)c(OC)cc23)c(Cl)cc1Cl [Bosutinib] + Cc1nc(NC(=O)N2CCC[C@H]2C(N)=O)sc1-c1ccnc(C(C)(C)C(F)(F)F)c1 [Alpelisib] (partner 2 µM)
How it was run: as §1

Bosutinib + Dasatinib = compound: COc1cc(Nc2c(C#N)cnc3cc(OCCCN4CCN(C)CC4)c(OC)cc23)c(Cl)cc1Cl [Bosutinib] + Cc1nc(Nc2ncc(C(=O)Nc3c(C)cccc3Cl)s2)cc(N2CCN(CCO)CC2)n1 [Dasatinib] (partner 0.075 µM)
How it was run: as §1

Bosutinib + Lapatinib = compound: COc1cc(Nc2c(C#N)cnc3cc(OCCCN4CCN(C)CC4)c(OC)cc23)c(Cl)cc1Cl [Bosutinib] + CS(=O)(=O)CCNCc1ccc(-c2ccc3ncnc(Nc4ccc(OCc5cccc(F)c5)c(Cl)c4)c3c2)o1 [Lapatinib] (partner 2 µM)
How it was run: as §1

NCI-H1793 gave a relative viability (Bosutinib + AZD7762; first compound 0.01 µM) of 0.497, a relative viability (Bosutinib + AZD7762; first compound 0.03162 µM) of 0.39 and a relative viability (Bosutinib + AZD7762; first compound 0.1 µM) of 0.366. It also gave a relative viability (Bosutinib + AZD7762; first compound 1 µM) of 0.175, a relative viability (Bosutinib + Phenformin; first compound 0.01 µM) of 0.431 and a relative viability (Bosutinib + Phenformin; first compound 0.03162 µM) of 0.387. It also gave a relative viability (Bosutinib + Phenformin; first compound 0.1 µM) of 0.364, a relative viability (Bosutinib + Phenformin; first compound 1 µM) of 0.242 and a relative viability (Bosutinib + Alpelisib; first compound 0.01 µM) of 0.669. For the same cell line, the relative viability (Bosutinib + Alpelisib; first compound 0.03162 µM) was 0.603, the relative viability (Bosutinib + Alpelisib; first compound 0.1 µM) was 0.711 and the relative viability (Bosutinib + Alpelisib; first compound 1 µM) was 0.49. For the same cell line, the relative viability (Bosutinib + Dasatinib; first compound 0.01 µM) was 0.465, the relative viability (Bosutinib + Dasatinib; first compound 0.03162 µM) was 0.392 and the relative viability (Bosutinib + Dasatinib; first compound 0.1 µM) was 0.391. It also gave a relative viability (Bosutinib + Dasatinib; first compound 1 µM) of 0.347, a relative viability (Bosutinib + Lapatinib; first compound 0.01 µM) of 0.864 and a relative viability (Bosutinib + Lapatinib; first compound 0.03162 µM) of 0.839. The relative viability (Bosutinib + Lapatinib; first compound 0.1 µM) was 0.438 and the relative viability (Bosutinib + Lapatinib; first compound 1 µM) was 0.497.
For NCI-H1915, the relative viability (Bosutinib + AZD7762; first compound 0.01 µM) was 0.718, the relative viability (Bosutinib + AZD7762; first compound 0.03162 µM) was 0.647 and the relative viability (Bosutinib + AZD7762; first compound 0.1 µM) was 0.654. The relative viability (Bosutinib + AZD7762; first compound 1 µM) was 0.572, the relative viability (Bosutinib + Phenformin; first compound 0.01 µM) was 0.365 and the relative viability (Bosutinib + Phenformin; first compound 0.03162 µM) was 0.365. It also gave a relative viability (Bosutinib + Phenformin; first compound 0.1 µM) of 0.382, a relative viability (Bosutinib + Phenformin; first compound 1 µM) of 0.348 and a relative viability (Bosutinib + Alpelisib; first compound 0.01 µM) of 1.03. The relative viability (Bosutinib + Alpelisib; first compound 0.03162 µM) was 1.07, the relative viability (Bosutinib + Alpelisib; first compound 0.1 µM) was 1.1 and the relative viability (Bosutinib + Alpelisib; first compound 1 µM) was 1.06. For the same cell line, the relative viability (Bosutinib + Dasatinib; first compound 0.01 µM) was 0.323, the relative viability (Bosutinib + Dasatinib; first compound 0.03162 µM) was 0.323 and the relative viability (Bosutinib + Dasatinib; first compound 0.1 µM) was 0.33. The relative viability (Bosutinib + Dasatinib; first compound 1 µM) was 0.297, the relative viability (Bosutinib + Lapatinib; first compound 0.01 µM) was 0.919 and the relative viability (Bosutinib + Lapatinib; first compound 0.03162 µM) was 0.965. The relative viability (Bosutinib + Lapatinib; first compound 0.1 µM) was 0.991 and the relative viability (Bosutinib + Lapatinib; first compound 1 µM) was 1.06.
Work on NCI-H1944 yielded a relative viability (Bosutinib + AZD7762; first compound 0.01 µM) of 0.558, a relative viability (Bosutinib + AZD7762; first compound 0.03162 µM) of 0.533 and a relative viability (Bosutinib + AZD7762; first compound 0.1 µM) of 0.476. For the same cell line, the relative viability (Bosutinib + AZD7762; first compound 1 µM) was 0.394, the relative viability (Bosutinib + Phenformin; first compound 0.01 µM) was 0.203 and the relative viability (Bosutinib + Phenformin; first compound 0.03162 µM) was 0.193. For the same cell line, the relative viability (Bosutinib + Phenformin; first compound 0.1 µM) was 0.202, the relative viability (Bosutinib + Phenformin; first compound 1 µM) was 0.186 and the relative viability (Bosutinib + Alpelisib; first compound 0.01 µM) was 0.849. The relative viability (Bosutinib + Alpelisib; first compound 0.03162 µM) was 0.826, the relative viability (Bosutinib + Alpelisib; first compound 0.1 µM) was 0.826 and the relative viability (Bosutinib + Alpelisib; first compound 1 µM) was 0.614. For the same cell line, the relative viability (Bosutinib + Dasatinib; first compound 0.01 µM) was 0.216, the relative viability (Bosutinib + Dasatinib; first compound 0.03162 µM) was 0.2 and the relative viability (Bosutinib + Dasatinib; first compound 0.1 µM) was 0.209. It also gave a relative viability (Bosutinib + Dasatinib; first compound 1 µM) of 0.208, a relative viability (Bosutinib + Lapatinib; first compound 0.01 µM) of 0.834 and a relative viability (Bosutinib + Lapatinib; first compound 0.03162 µM) of 0.803. It also gave a relative viability (Bosutinib + Lapatinib; first compound 0.1 µM) of 0.865 and a relative viability (Bosutinib + Lapatinib; first compound 1 µM) of 0.736.
NCI-H1975 gave a relative viability (Bosutinib + AZD7762; first compound 0.01 µM) of 0.742, a relative viability (Bosutinib + AZD7762; first compound 0.03162 µM) of 0.711 and a relative viability (Bosutinib + AZD7762; first compound 0.1 µM) of 0.642. It also gave a relative viability (Bosutinib + AZD7762; first compound 1 µM) of 0.559, a relative viability (Bosutinib + Phenformin; first compound 0.01 µM) of 0.401 and a relative viability (Bosutinib + Phenformin; first compound 0.03162 µM) of 0.447. The relative viability (Bosutinib + Phenformin; first compound 0.1 µM) was 0.437, the relative viability (Bosutinib + Phenformin; first compound 1 µM) was 0.403 and the relative viability (Bosutinib + Alpelisib; first compound 0.01 µM) was 0.615. For the same cell line, the relative viability (Bosutinib + Alpelisib; first compound 0.03162 µM) was 0.688, the relative viability (Bosutinib + Alpelisib; first compound 0.1 µM) was 0.67 and the relative viability (Bosutinib + Alpelisib; first compound 1 µM) was 0.433. The relative viability (Bosutinib + Dasatinib; first compound 0.01 µM) was 0.343, the relative viability (Bosutinib + Dasatinib; first compound 0.03162 µM) was 0.395 and the relative viability (Bosutinib + Dasatinib; first compound 0.1 µM) was 0.364. It also gave a relative viability (Bosutinib + Dasatinib; first compound 1 µM) of 0.374, a relative viability (Bosutinib + Lapatinib; first compound 0.01 µM) of 0.907 and a relative viability (Bosutinib + Lapatinib; first compound 0.03162 µM) of 0.842. For the same cell line, the relative viability (Bosutinib + Lapatinib; first compound 0.1 µM) was 0.839 and the relative viability (Bosutinib + Lapatinib; first compound 1 µM) was 0.712.
Work on NCI-H1993 yielded a relative viability (Bosutinib + AZD7762; first compound 0.01 µM) of 0.759, a relative viability (Bosutinib + AZD7762; first compound 0.03162 µM) of 0.778 and a relative viability (Bosutinib + AZD7762; first compound 0.1 µM) of 0.847. It also gave a relative viability (Bosutinib + AZD7762; first compound 1 µM) of 0.672, a relative viability (Bosutinib + Phenformin; first compound 0.01 µM) of 0.513 and a relative viability (Bosutinib + Phenformin; first compound 0.03162 µM) of 0.511. The relative viability (Bosutinib + Phenformin; first compound 0.1 µM) was 0.492, the relative viability (Bosutinib + Phenformin; first compound 1 µM) was 0.59 and the relative viability (Bosutinib + Alpelisib; first compound 0.01 µM) was 0.635. For the same cell line, the relative viability (Bosutinib + Alpelisib; first compound 0.03162 µM) was 0.69, the relative viability (Bosutinib + Alpelisib; first compound 0.1 µM) was 0.641 and the relative viability (Bosutinib + Alpelisib; first compound 1 µM) was 0.669. For the same cell line, the relative viability (Bosutinib + Dasatinib; first compound 0.01 µM) was 0.492, the relative viability (Bosutinib + Dasatinib; first compound 0.03162 µM) was 0.63 and the relative viability (Bosutinib + Dasatinib; first compound 0.1 µM) was 0.589. For the same cell line, the relative viability (Bosutinib + Dasatinib; first compound 1 µM) was 0.622, the relative viability (Bosutinib + Lapatinib; first compound 0.01 µM) was 0.814 and the relative viability (Bosutinib + Lapatinib; first compound 0.03162 µM) was 0.85. The relative viability (Bosutinib + Lapatinib; first compound 0.1 µM) was 0.947 and the relative viability (Bosutinib + Lapatinib; first compound 1 µM) was 0.835.
NCI-H2085 gave a relative viability (Bosutinib + AZD7762; first compound 0.01 µM) of 1.1, a relative viability (Bosutinib + AZD7762; first compound 0.03162 µM) of 0.903 and a relative viability (Bosutinib + AZD7762; first compound 0.1 µM) of 0.939. For the same cell line, the relative viability (Bosutinib + AZD7762; first compound 1 µM) was 0.65, the relative viability (Bosutinib + Phenformin; first compound 0.01 µM) was 0.825 and the relative viability (Bosutinib + Phenformin; first compound 0.03162 µM) was 0.705. The relative viability (Bosutinib + Phenformin; first compound 0.1 µM) was 0.652, the relative viability (Bosutinib + Phenformin; first compound 1 µM) was 0.515 and the relative viability (Bosutinib + Alpelisib; first compound 0.01 µM) was 0.978. For the same cell line, the relative viability (Bosutinib + Alpelisib; first compound 0.03162 µM) was 0.976, the relative viability (Bosutinib + Alpelisib; first compound 0.1 µM) was 0.903 and the relative viability (Bosutinib + Alpelisib; first compound 1 µM) was 0.988. The relative viability (Bosutinib + Dasatinib; first compound 0.01 µM) was 0.264, the relative viability (Bosutinib + Dasatinib; first compound 0.03162 µM) was 0.219 and the relative viability (Bosutinib + Dasatinib; first compound 0.1 µM) was 0.329. The relative viability (Bosutinib + Dasatinib; first compound 1 µM) was 0.398, the relative viability (Bosutinib + Lapatinib; first compound 0.01 µM) was 0.749 and the relative viability (Bosutinib + Lapatinib; first compound 0.03162 µM) was 0.747. For the same cell line, the relative viability (Bosutinib + Lapatinib; first compound 0.1 µM) was 0.813 and the relative viability (Bosutinib + Lapatinib; first compound 1 µM) was 0.744.
For NCI-H2087, the relative viability (Bosutinib + AZD7762; first compound 0.01 µM) was 1.54, the relative viability (Bosutinib + AZD7762; first compound 0.03162 µM) was 1.13 and the relative viability (Bosutinib + AZD7762; first compound 0.1 µM) was 1.31. It also gave a relative viability (Bosutinib + AZD7762; first compound 1 µM) of 1.24, a relative viability (Bosutinib + Phenformin; first compound 0.01 µM) of 0.563 and a relative viability (Bosutinib + Phenformin; first compound 0.03162 µM) of 0.43. It also gave a relative viability (Bosutinib + Phenformin; first compound 0.1 µM) of 0.411, a relative viability (Bosutinib + Phenformin; first compound 1 µM) of 0.457 and a relative viability (Bosutinib + Alpelisib; first compound 0.01 µM) of 1.18. For the same cell line, the relative viability (Bosutinib + Alpelisib; first compound 0.03162 µM) was 1.15, the relative viability (Bosutinib + Alpelisib; first compound 0.1 µM) was 1.19 and the relative viability (Bosutinib + Alpelisib; first compound 1 µM) was 1. It also gave a relative viability (Bosutinib + Dasatinib; first compound 0.01 µM) of 0.871, a relative viability (Bosutinib + Dasatinib; first compound 0.03162 µM) of 0.848 and a relative viability (Bosutinib + Dasatinib; first compound 0.1 µM) of 0.913. For the same cell line, the relative viability (Bosutinib + Dasatinib; first compound 1 µM) was 0.848, the relative viability (Bosutinib + Lapatinib; first compound 0.01 µM) was 0.956 and the relative viability (Bosutinib + Lapatinib; first compound 0.03162 µM) was 1.07. It also gave a relative viability (Bosutinib + Lapatinib; first compound 0.1 µM) of 1.1 and a relative viability (Bosutinib + Lapatinib; first compound 1 µM) of 1.09.

— the supplement of paper PMC10307832
